According to the NIST ThermoML archive (doi:10.1016/j.jct.2014.12.027):

Details: 101.33 kPa, Liquid, Vibrating tube method

CCCC[n+]1ccc(C)cc1.N#CC(=C=[N-])C#N [1-butyl-4-methylpyridinium tricyanomethanide]
Details	mass density [kg/m3]
293.15 K	1037.3
303.15 K	1031.7
313.15 K	1026.2
323.15 K	1020.7
333.15 K	1015.1
343.15 K	1009.6
